Source: patent US8791144B2, “Substituted N-phenyl-1-(4-Pyridinyl)-1H-pyrazol-3-amines” (Janssen Pharmaceutica NV, priority 2009, dated 2014)

Key:
[1] = target: T1, hα7-wt nAChR (Homo sapiens, UniProt P36544); test: Patch-clamp current recording (whole-cell voltage clamp), potentiation of choline current and PAM type; type: cell-based; design: key: Type 0 compounds minimally enhance the effect size of the current elicited by 1 mM choline.; Type 1 compounds enhance the effect size of the current elicited by 1 mM choline but minimally alter the kinetics of the receptor.; Type 2 compounds enhance the effect size of the current elicited by 1 mM choline while reducing the rate and/or the extent of desensitization.; Type 3 compounds enhance the effect size of the current elicited by 1 mM choline. When tested at higher concentrations up to 10 μM they completely inhibit desensitization, in particular a 1 mM choline application of 250 milliseconds.; Type 4 compounds allow for an initial desensitization of the receptor followed by a re-opening of the receptor during agonist application; conditions: hα7-wt nAChR-expressing GH4C1 cells, 1 mM choline
T1 sequence (P36544 23-502): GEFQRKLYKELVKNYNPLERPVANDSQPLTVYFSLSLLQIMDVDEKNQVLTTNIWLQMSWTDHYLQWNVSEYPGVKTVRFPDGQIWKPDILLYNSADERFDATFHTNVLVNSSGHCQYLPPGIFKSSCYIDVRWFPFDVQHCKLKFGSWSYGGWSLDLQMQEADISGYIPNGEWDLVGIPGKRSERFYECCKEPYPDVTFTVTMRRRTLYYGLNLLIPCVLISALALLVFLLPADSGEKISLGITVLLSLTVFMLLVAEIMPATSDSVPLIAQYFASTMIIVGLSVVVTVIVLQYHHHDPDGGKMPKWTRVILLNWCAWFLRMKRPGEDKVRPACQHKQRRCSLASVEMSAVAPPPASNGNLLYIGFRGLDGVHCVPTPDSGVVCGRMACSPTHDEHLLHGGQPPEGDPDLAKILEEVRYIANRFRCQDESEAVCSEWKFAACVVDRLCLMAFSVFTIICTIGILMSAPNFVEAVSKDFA
Method: The compounds of the present invention are classified as type 0-4, based on qualitative kinetic properties, as determined by whole-cell voltage-clamp recordings. This classification is based on the effect of an α7 PAM compound, as described hereinbefore, on the signal elicited by an agonist application. In particular, said agonist is choline at a concentration of 1 mM. In a preferred experimental setting, said α7 PAM compound and choline are simultaneously applied to the cell, as described hereinafter. Desensitization is defined as the closure of the receptor upon activation during the application of the agonist in whole-cell voltage-clamp electrophysiology measurements seen as the reduction of the […] current after initial activation by the agonist.
The definition of the PAM types 0-4 is described hereinafter: • Type 0 compounds minimally enhance the effect size of the current elicited by 1 mM choline. • Type 1 compounds enhance the effect size of the current elicited by 1 mM choline but minimally alter the kinetics of the receptor. In particular, the rate and the extent of desensitization, elicited by the agonist, is not affected. The compound-modulated response to 1 mM choline, therefore, is a close to linear scaling of the 1 mM choline response in absence of the α7 PAM compound. • Type 2 compounds enhance the effect size of the current elicited by 1 mM choline while reducing the rate and/or the extent of desensitization. • Type 3 compounds enhance the effect size of the current elicited by 1 mM choline. […] At low-potency concentrations of the α7 PAM compound, the agonist-induced activation, which is followed by desensitization, can still be separated from the compound-induced re-opening as an initial inward current-maximum. At higher potency concentrations of the α7 PAM compound, the re-opening occurs faster than the closure due to desensitization so that the initial current-maximum disappears.
A compound was considered to have interesting PAM-like activity when the potentiation of the peak current was at least 200% compared to the control choline response (=100%). Such compounds are classified as belonging to a particular PAM type in the Experimental Part. Compounds not meeting the condition are not classified as belonging to a particular PAM-type.
The compounds also have a potentiating effect on the response to choline when measured by whole-cell patch clamp electrophysiology in GH4C1 cells stably over-expressing the human wild-type α7 receptor.
Patch-clamp recording from mammalian cells has provided a powerful means of assessing the function of membrane-bound proteins thought to be subunits of ligand-gated ion channels. Activation of such proteins by endogenous or exogenous ligands cause opening of a pore associated with the receptor through which ions flow down their electrochemical gradient. In the case of the hα7-wt nAChR-expressing GH4C1 recombinant cell line the preferential permeability to calcium of this receptor means that calcium flows into the cell upon activation by ACh, choline and other nicotinic ligands giving rise to a calcium current. Since this receptor rapidly desensitizes in the presence of agonist it is important an application system is used which is capable of very rapid switching of solutions (<100 ms) to prevent partial or full desensitisation of receptor responses coincident with the time of agonist application. Consequently, a second convenient technique to assess the enhancement of nicotinic efficacy is patch-clamp recording from hα7-wt nAChR-expressing GH4C1 cells coupled with a rapid-application system.
• a) Assay Buffers • The external recording solution consisted of 152 mM NaCl, 5 mM KCl, 1 mM MgCl2, 1 mM Calcium, 10 mM HEPES; pH 7.3. […]

[2] = target: T1, hα7-wt nAChR; test: Ca2+ flux imaging (FDSS): potentiation of the choline response; type: cell-based; conditions: Ca2+ assay as described in D.1; potentiation of choline response, hα7-wt nAChR; read-out: Potency (pEC50) (converted)
Method: • a) Assay Buffer • Hanks buffered saline solution (HBSS, Invitrogen, Belgium), supplemented with 10 mM HEPES (Invitrogen, Belgium), CaCl2 to a final concentration of 5 mM, 0.1% Bovine serum albumin (Sigma-Aldrich NV, Belgium). • b) Calcium-Sensitive Dye—Fluo-4AM • Fluo-4AM (Molecular Probes, USA) was dissolved in DMSO containing 10% Pluronic acid (Molecular Probes, USA) to give a stock solution which was diluted in assay buffer supplemented with 5 mM probenicid (Sigma, Aldrich NV, Belgium) to give a final concentration of 2 μM. • c) 384-Well Plates • Black 384 well plate black/clear plates, PDL pre-coated (Corning, Incorporated, USA) • d) Calcium Flux Measurement • A Functional drug screening system (FDSS, Hamamatsu) was used to measure intracellular free-calcium flux signals. Method
Monolayers of hα7-wt nAChR-expressing cells were grown in multi-well plates, in particular black-sided, transparent bottomed 384 well plates coated with poly-D-lysine for 24 hours prior to loading with a fluorescent calcium indicator, in a particular embodiment loading with fluo-4AM for up to 120 minutes.
PAM activity was detected in real time by applying the compounds to be tested to the loaded cells along with a α7 nicotinic receptor agonist during constant monitoring of cellular fluorescence in a FDSS. Compounds giving peak fluorescent responses greater than the response due to agonist alone, were considered to be α7 nAChR PAM's. In a particular embodiment, the α7 nicotinic receptor agonist was choline, a more particular embodiment choline applied at a sub-maximal concentration of 100 μM. In a further setting of the present invention the compounds to be tested were applied prior to the α7 nicotinic receptor agonist, in a particular embodiment up to 10 minutes prior to the agonist.
A control response to choline was calculated on each plate from the difference in peak in fluorescence in wells receiving either choline or assay buffer alone. Compounds of the present invention were tested at a concentration range from 0.01 μM to 30 μM. Compounds were considered to have an interesting activity when they potentiated the choline signal at least with 200% when tested at a concentration of 30 μM (the efficacy of 100 μM choline was defined as 100% in the absence of a PAM). An EC50 (or pEC50) was determined as a concentration relating to half the maximal effect, when a clear sigmoidal curve with top plateau was obtained.

Structure (SMILES)	PAM type [1]	EC50 [2]	melting point
Cc1cc(-n2nc(Nc3cccc(Cl)c3F)cc2CC(=O)NC2CCC2)ccn1 [Compound 82, 3-[(3-chloro-2-fluorophenyl)amino]-N-cyclobutyl-1-(2-methyl-4-pyridinyl)-1H-pyrazole-5-acetamide]	2	490 nM	223.2 °C
CC[C@H](O)Cc1cc(Nc2cc(F)c(F)cc2F)nn1-c1ccnc(C)c1 [Compound 21, (alphaS)-alpha-ethyl-1-(2-methyl-4-pyridinyl)-3-[(2,4,5-trifluorophenyl)amino]-1H-pyrazole-5-ethanol]	2	3470 nM	166.6 °C
CC[C@H](O)Cc1cc(Nc2cccc(Cl)c2)nn1-c1ccnc(C)c1 [Compound 57, (alphaS)-3-[(3-chlorophenyl)amino]-alpha-ethyl-1-(2-methyl-4-pyridinyl)-1H-pyrazole-5-ethanol]	2	2240 nM	149.3 °C
CC[C@H](O)Cc1cc(Nc2cccc(C(F)(F)F)c2)nn1-c1ccnc(C)c1 [Compound 37, (alphaS)-alpha-ethyl-1-(2-methyl-4-pyridinyl)-3-[[3-(trifluoromethyl)phenyl]amino]-1H-pyrazole-5-ethanol]	2	2290 nM	169.5 °C
CCNC(=O)Cc1cc(Nc2ccc3c(c2)OC(F)(F)O3)nn1-c1ccnc(C)c1 [Compound 98, 3-[(2,2-difluoro-1,3-benzodioxol-5-yl)amino]-N-ethyl-1-(2-methyl-4-pyridinyl)-1H-pyrazole-5-acetamide]	2	1200 nM	239.2 °C
CNC(=O)Cc1cc(Nc2cccc(OC(F)(F)F)c2)nn1-c1cc(C)nc(C)c1 [Compound 112, 1-(2,6-dimethyl-4-pyridinyl)-N-methyl-3-[[3-(trifluoromethoxy)phenyl]amino]-1H-pyrazole-5-acetamide]	2	1290 nM	222 °C
CNC(=O)Cc1cc(Nc2cccc(Cl)c2F)nn1-c1ccnc(C)c1 [Compound 71, 3-[(3-chloro-2-fluorophenyl)amino]-N-methyl-1-(2-methyl-4-pyridinyl)-1H-pyrazole-5-acetamide]	2	2240 nM	229.7 °C
CCNC(=O)Cc1cc(Nc2ccc(F)c(F)c2)nn1-c1ccnc(C)c1 [Compound 28, 3-[(3,4-difluorophenyl)amino]-N-ethyl-1-(2-methyl-4-pyridinyl)-1H-pyrazole-5-acetamide]	2	2510 nM	242.4 °C
CCNC(=O)Cc1cc(Nc2cccc(Cl)c2F)nn1-c1cc(C)nc(C)c1 [Compound 75, 3-[(3-chloro-2-fluorophenyl)amino]-1-(2,6-dimethyl-4-pyridinyl)-N-ethyl-1H-pyrazole-5-acetamide]	2	372 nM	–
CC[C@H](O)Cc1cc(Nc2cc(F)c(F)c(F)c2)nn1-c1ccnc(C)c1 [Compound 20, (alphaS)-alpha-ethyl-1-(2-methyl-4-pyridinyl)-3-[(3,4,5-trifluorophenyl)amino]-1H-pyrazole-5-ethanol]	2	851 nM	–
Cc1cc(-n2nc(Nc3ccc(F)c(F)c3)cc2CCC(=O)N(C)C)ccn1 [Compound 30, 3-[(3,4-difluorophenyl)amino]-N,N-dimethyl-1-(2-methyl-4-pyridinyl)-1H-pyrazole-5-propanamide]	4	977 nM	–
CC[C@@H](O)Cc1cc(Nc2cc(OC)cc(C(F)(F)F)c2)nn1-c1ccnc(C)c1 [Compound 36, (alphaR)-alpha-ethyl-3-[[3-methoxy-5-(trifluoromethyl)phenyl]amino]-1-(2-methyl-4-pyridinyl)-1H-pyrazole-5-ethanol]	2	162 nM	–
CC[C@H](O)Cc1cc(Nc2ccc(Br)cc2C#N)nn1-c1ccnc(C)c1 [Compound 124, 5-bromo-2-[[5-[(2S)-2-hydroxybutyl]-1-(2-methyl-4-pyridinyl)-1H-pyrazol-3-yl]amino]-benzonitrile]	2	1660 nM	–
CNC(=O)Cc1cc(Nc2cccc(C(F)(F)F)c2)nn1-c1ccnc(C)c1 [Compound 42, N-methyl-1-(2-methyl-4-pyridinyl)-3-[[3-(trifluoromethyl)phenyl]amino]-1H-pyrazole-5-acetamide]	4	1860 nM	–
Cc1cc(-n2nc(Nc3cccc(C(F)(F)F)c3)cc2CCC(=O)N(C)C)ccn1 [Compound 49, N,N-dimethyl-1-(2-methyl-4-pyridinyl)-3-[[3-(trifluoromethyl)phenyl]amino]-1H-pyrazole-5-propanamide]	4	295 nM	–
COc1cc(Cl)cc(Nc2cc(CCC(=O)N(C)C)n(-c3ccnc(C)c3)n2)c1 [Compound 85, 3-[(3-chloro-5-methoxyphenyl)amino]-N,N-dimethyl-1-(2-methyl-4-pyridinyl)-1H-pyrazole-5-propanamide]	4	295 nM	–
COc1cc(Cl)cc(Nc2cc(CC(=O)NC3CC3)n(-c3ccnc(C)c3)n2)c1 [Compound 77, 3-[(3-chloro-5-methoxyphenyl)amino]-N-cyclopropyl-1-(2-methyl-4-pyridinyl)-1H-pyrazole-5-acetamide]	4	603 nM	–
Cc1cc(-n2nc(Nc3cccc(Cl)c3F)cc2CCC(=O)N(C)C)ccn1 [Compound 84, 3-[(3-chloro-2-fluorophenyl)amino]-N,N-dimethyl-1-(2-methyl-4-pyridinyl)-1H-pyrazole-5-propanamide]	4	661 nM	–
